Test results: article PMC10377601, “Side Chain-Modified Benzothiazinone Derivatives with Anti-Mycobacterial Activity” (Biomedicines, 2023)

Legend:
[1] = test system: Mycobacterium tuberculosis; set-up: method as in PMID 24500695; conditions: whole-cell activity; cited from earlier work
M. tuberculosis H37Rv = test: MIC determination by microplate alamar blue assay (MABA); type: cell-based; conditions: Mycobacterium tuberculosis
[2] = target: T1, recombinant M. tuberculosis DprE1 enzyme (Mycobacterium tuberculosis, UniProt P9WJF1); test: DprE1 inhibition, Amplex Red/peroxidase coupled assay; type: biochemical; conditions: Mtb DprE1
T1 construct: made in house; host or cells: E. coli
T1 sequence (P9WJF1 whole entry): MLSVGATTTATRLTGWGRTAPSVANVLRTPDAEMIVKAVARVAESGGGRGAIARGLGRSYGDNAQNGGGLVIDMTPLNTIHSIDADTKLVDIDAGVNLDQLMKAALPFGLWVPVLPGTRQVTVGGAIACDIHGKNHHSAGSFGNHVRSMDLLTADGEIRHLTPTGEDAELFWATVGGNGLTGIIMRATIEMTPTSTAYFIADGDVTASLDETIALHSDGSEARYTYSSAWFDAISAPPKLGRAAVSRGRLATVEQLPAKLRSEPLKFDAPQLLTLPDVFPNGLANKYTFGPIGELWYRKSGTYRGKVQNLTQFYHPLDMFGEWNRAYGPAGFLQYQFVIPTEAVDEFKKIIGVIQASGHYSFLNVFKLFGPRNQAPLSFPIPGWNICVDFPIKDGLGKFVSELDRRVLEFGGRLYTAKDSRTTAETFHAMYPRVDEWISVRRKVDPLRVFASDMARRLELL

in vitro = in vitro ADME; set-up: dose or concentration left out as unconfirmed; conditions: human, microsomes, pH 7.4
Method: The compounds’ metabolic stability were determined in human liver microsomes. A solution of microsomes (0.2 mg/mL) containing the compounds […], NADPH (1 mM), and phosphate buffer (100 mM, pH 7.4) were prepared. Pre-incubation was conducted at 37 °C for 10 min. There was addition of 50 µL and 5 mM NADPH to initiate the reaction. At 5, 15, 30, 60, or 120 min, 30 µL of reaction solution was taken out and quenched with 300 µL internal standard tolbutamide (10 ng/mL) in cold CH3CN. The mixture was centrifuged at 6000 rpm for 15 min at 4 °C. Then, 100 μL supernatant was diluted with 100 uL ultrapure water (Millipore, ZMQS50F01). The solution was analyzed via LC/MS analysis.

| SMILES | MIC (M. tuberculosis H37Rv; 168 h, Mtb H37Rv, MABA) [µM] | MIC (M. tuberculosis H37Rv; Mtb H37Rv, MABA) [µM] | further results |
| --- | --- | --- | --- |
| C[C@H]1COC2(CCN(c3nc(=O)c4cc(C(F)(F)F)cc([N+](=O)[O-])c4s3)CC2)O1 [BTZ043] |  |  | minimal inhibitory concentration (MIC) [1]: lower than 0.004 µM |
| CN(Cc1cn(C2CCCCC2)nn1)c1nc(=O)c2cc(C(F)(F)F)cc([N+](=O)[O-])c2s1 [Compound 1, 2-{[(1-cyclohexyl-1H-1,2,3-triazol-4-yl)methyl](methyl)amino}-BTZ] | 0.032 | 0.032 |  |
| CN(Cc1cn(-c2ccncc2)nn1)c1nc(=O)c2cc(C(F)(F)F)cc([N+](=O)[O-])c2s1 [Compound 5] |  | 0.047 |  |
| CN(Cc1cn(-c2cccnc2)nn1)c1nc(=O)c2cc(C(F)(F)F)cc([N+](=O)[O-])c2s1 [Compound 6] |  | 0.17 |  |
| CN(Cc1cn(-c2ccc(-c3ccccc3)cc2)nn1)c1nc(=O)c2cc(C(F)(F)F)cc([N+](=O)[O-])c2s1 [Compound 7] |  | 0.44 |  |
| CN(Cc1cn(-c2ccc3ccccc3c2)nn1)c1nc(=O)c2cc(C(F)(F)F)cc([N+](=O)[O-])c2s1 [Compound 8] |  | 0.057 |  |
| CN(Cc1cn(-c2cccc3ccccc23)nn1)c1nc(=O)c2cc(C(F)(F)F)cc([N+](=O)[O-])c2s1 [Compound 9] |  | 0.217 |  |
| CN(Cc1cn(-c2ccc(F)cc2)nn1)c1nc(=O)c2cc(C(F)(F)F)cc([N+](=O)[O-])c2s1 [Compound 12] | 0.012 | 0.012 |  |
| CN(Cc1cn(-c2cccc(F)c2)nn1)c1nc(=O)c2cc(C(F)(F)F)cc([N+](=O)[O-])c2s1 [Compound 13] | 0.008 | 0.008 |  |
| CN(Cc1cn(-c2ccccc2F)nn1)c1nc(=O)c2cc(C(F)(F)F)cc([N+](=O)[O-])c2s1 [Compound 14] | 0.27 | 0.27 |  |
| CN(Cc1cn(-c2cccc(Cl)c2)nn1)c1nc(=O)c2cc(C(F)(F)F)cc([N+](=O)[O-])c2s1 [Compound 15] | 0.014 to 0.207 | 0.014 |  |
| CN(Cc1cn(-c2cccc(Br)c2)nn1)c1nc(=O)c2cc(C(F)(F)F)cc([N+](=O)[O-])c2s1 [Compound 16] | 0.014 to 0.207 | 0.055 |  |
| CN(Cc1cn(-c2cccc(I)c2)nn1)c1nc(=O)c2cc(C(F)(F)F)cc([N+](=O)[O-])c2s1 [Compound 17] | 0.014 to 0.207 | 0.133 |  |
| COc1cccc(-n2cc(CN(C)c3nc(=O)c4cc(C(F)(F)F)cc([N+](=O)[O-])c4s3)nn2)c1 [Compound 18] | 0.014 to 0.207 | 0.12 |  |
| Cc1cccc(-n2cc(CN(C)c3nc(=O)c4cc(C(F)(F)F)cc([N+](=O)[O-])c4s3)nn2)c1 [Compound 19, 2-{methyl[1-(m-tolyl)-1H-1,2,3-triazol-4-yl](methyl)amino}-BTZ] | 0.014 to 0.207 | 0.061 |  |
| CN(Cc1cn(-c2cccc(C(F)(F)F)c2)nn1)c1nc(=O)c2cc(C(F)(F)F)cc([N+](=O)[O-])c2s1 [Compound 20] | 0.014 to 0.207 | 0.04 |  |
| CN(Cc1cn(-c2cccc(C#N)c2)nn1)c1nc(=O)c2cc(C(F)(F)F)cc([N+](=O)[O-])c2s1 [Compound 21, 3-{4-[(methyl(8-nitro-4-oxo-6-(trifluoromethyl)-4H-benzo[e][1,3]thiazin-2-yl)amino)methyl)-1H-1,2,3-triazol-1-yl)benzonitrile] | 0.014 to 0.207 | 0.207 |  |
| CN(Cc1cn(-c2ccc(F)c(F)c2)nn1)c1nc(=O)c2cc(C(F)(F)F)cc([N+](=O)[O-])c2s1 [Compound 22] | < 0.023 | 0.014 |  |
| CN(Cc1cn(-c2cc(F)cc(F)c2)nn1)c1nc(=O)c2cc(C(F)(F)F)cc([N+](=O)[O-])c2s1 [Compound 23] | < 0.023 | 0.016 |  |

| SMILES | MIC (M. tuberculosis H37Rv; 168 h, Mtb H37Rv, MABA) [µM] | MIC (M. tuberculosis H37Rv; Mtb H37Rv, MABA) [µM] | further results |
| --- | --- | --- | --- |
| CN(Cc1cn(-c2c(F)cccc2F)nn1)c1nc(=O)c2cc(C(F)(F)F)cc([N+](=O)[O-])c2s1 [Compound 24] |  | 0.259 | IC50 [2]: 7200 nM |
| CN(Cc1cn(-c2ccc(F)cc2F)nn1)c1nc(=O)c2cc(C(F)(F)F)cc([N+](=O)[O-])c2s1 [Compound 25] |  | 0.023 |  |
| CN(Cc1cn(-c2ccc(Cl)c(Cl)c2)nn1)c1nc(=O)c2cc(C(F)(F)F)cc([N+](=O)[O-])c2s1 [Compound 26] |  | 0.036 | IC50 [2]: 20 nM; MIC (M. tuberculosis H37Rv; H37Rv, Table S1): 4 ng/mL |
| CN(Cc1cn(-c2ccc(F)c(Br)c2)nn1)c1nc(=O)c2cc(C(F)(F)F)cc([N+](=O)[O-])c2s1 [Compound 27] |  | 0.055 | IC50 [2]: 7200 nM; MIC (M. tuberculosis H37Rv; H37Rv, Table S1): 129 ng/mL |
| CN(Cc1cn(-c2ccc(F)c(Cl)c2)nn1)c1nc(=O)c2cc(C(F)(F)F)cc([N+](=O)[O-])c2s1 [Compound 28] |  | 0.029 | IC50 [2]: 41 nM; MIC (M. tuberculosis H37Rv; H37Rv, Table S1): 8 ng/mL |
| CN(Cc1cn(-c2ccc(Cl)cc2Cl)nn1)c1nc(=O)c2cc(C(F)(F)F)cc([N+](=O)[O-])c2s1 [Compound 29] |  | 0.023 | IC50 [2]: 24 nM; MIC (M. tuberculosis H37Rv; H37Rv, Table S1): 4 ng/mL |
| CN(Cc1cn(-c2cc(Cl)cc(Cl)c2)nn1)c1nc(=O)c2cc(C(F)(F)F)cc([N+](=O)[O-])c2s1 [Compound 30] |  | 0.047 | IC50 [2]: 90 nM; MIC (M. tuberculosis H37Rv; H37Rv, Table S1): 6 ng/mL |
| CN(Cc1coc(-c2ccccc2)n1)c1nc(=O)c2cc(C(F)(F)F)cc([N+](=O)[O-])c2s1 [Compound 31, 2-{methyl[(2-phenyloxazol-4-yl)methyl]amino}-BTZ] |  | 0.006 | IC50 [2]: 220 nM; CLint scaled (in vitro): 51.7 mL/min/kg; half-life (in vitro): 33.6 min; MIC (M. tuberculosis H37Rv; H37Rv, Table S1): 13 ng/mL |
| CN(Cc1coc(-c2ccc(F)cc2)n1)c1nc(=O)c2cc(C(F)(F)F)cc([N+](=O)[O-])c2s1 [Compound 32] |  | 0.006 | IC50 [2]: 750 nM; MIC (M. tuberculosis H37Rv; H37Rv, Table S1): 16 ng/mL |
| CN(Cc1coc(-c2cccc(F)c2)n1)c1nc(=O)c2cc(C(F)(F)F)cc([N+](=O)[O-])c2s1 [Compound 33] |  | 0.021 | IC50 [2]: 74 nM; MIC (M. tuberculosis H37Rv; H37Rv, Table S1): 3 ng/mL |
| CN(Cc1csc(-c2ccccc2)n1)c1nc(=O)c2cc(C(F)(F)F)cc([N+](=O)[O-])c2s1 [Compound 34, 2-{methyl[(2-phenylthiazol-4-yl)methyl]amino}-BTZ] | 0.015 | 0.015 | IC50 [2]: 69 nM; CLint scaled (in vitro): 71.6 mL/min/kg; half-life (in vitro): 24.3 min; MIC (M. tuberculosis H37Rv; H37Rv, Table S1): 3 ng/mL |
| CN(Cc1csc(-c2cccc(F)c2)n1)c1nc(=O)c2cc(C(F)(F)F)cc([N+](=O)[O-])c2s1 [Compound 35] | 0.032 | 0.032 | IC50 [2]: 65 nM; MIC (M. tuberculosis H37Rv; H37Rv, Table S1): 7 ng/mL |
| CN(Cc1csc(-c2ccc(F)cc2)n1)c1nc(=O)c2cc(C(F)(F)F)cc([N+](=O)[O-])c2s1 [Compound 36, 2-{[(2-(4-fluorophenyl)thiazol-4-yl)methyl](methyl)amino}-BTZ] | 0.034 | 0.034 | CLint scaled (in vitro): 25.5 mL/min/kg; half-life (in vitro): 68.2 min |
| CN(Cc1nnc(-c2cccc(F)c2)o1)c1nc(=O)c2cc(C(F)(F)F)cc([N+](=O)[O-])c2s1 [Compound 38] |  | 0.006 |  |
| CN(Cc1nnc(-c2ccc(F)cc2)o1)c1nc(=O)c2cc(C(F)(F)F)cc([N+](=O)[O-])c2s1 [Compound 39] |  | 0.006 |  |
| CN(Cc1nnc(-c2ccccc2)s1)c1nc(=O)c2cc(C(F)(F)F)cc([N+](=O)[O-])c2s1 [Compound 40, 2-{methyl[(5-phenyl-1,3,4-thiadiazol-2-yl)methyl]amino}-BTZ] |  | 0.033 | CLint scaled (in vitro): 50.7 mL/min/kg; half-life (in vitro): 34.3 min |
| CN(Cc1nnc(-c2cccc(F)c2)s1)c1nc(=O)c2cc(C(F)(F)F)cc([N+](=O)[O-])c2s1 [Compound 41] |  | 0.024 |  |
| CN(Cc1nnc(-c2ccc(F)cc2)s1)c1nc(=O)c2cc(C(F)(F)F)cc([N+](=O)[O-])c2s1 [Compound 42] |  | 0.026 |  |
